Data set [1] can be described thus: Stability of peptide once dissolved in solution (1 month). It is filed as physicochemical. The settings on record: 1 mg in 5 ml water, bicarbonate and benzyl alcohol (19, 4) or methanol (13, 14); for Stability of peptide once dissolved in solution (at 1 month), Room Temp (month): room temperature. How it is done: Each of the peptides having the sequences 13, 14, 19 and 4 were tested to determine their stability in a solution containing (preferred composition above) water, bicarbonate and either benzyl alcohol (peptide 19 and 4) or methanol (peptide 13 and 14). Each of the peptides were held for a period of 1 month at either 4° C. or at room temperature.
1 mg of each peptide was added to the water, bicarbonate and either benzyl alcohol or methanol solution and the solution was gently agitated for 1 hour at room temperature before standing at either 4° C. or at room temperature for a period of 1 month.

Data set [2] relates to thoroughbred having equine laminitis. Briefly: Effect of peptides on equine laminitis (Obel Lameness Grades). The settings on record: for Change in Obel Score: 1 mg intravenously, before vs 24 hours after injection, most negative = greatest improvement; for Duration (days) of effect on laminitis: single 1 mg intravenous, averaged, report by veterinarians. Format: in vivo, horse. How it is done:
Each of the peptides having the sequences 13, 14, 19 and 4 were also tested to determine their effect on equine laminitis. Each peptide was administered intravenously to a thoroughbred having equine laminitis. The peptides were prepared as compositions containing 1 mg of peptide dissolved in 5 ml of a solution comprising water, bicarbonate and either benzyl alcohol or methanol. The effect of the peptides on equine laminitis was judged by the Obel Lameness Grades, which is a system of rating degrees of lameness resulting from laminitis. […] Obel Grade III horses do resist having a foreleg lifted, and are reluctant to walk. Obel Grade IV horses will walk only if forced. The Obel Score for each of the horses was measured before administration of the peptide and 24 hours after injection of the peptide. […] The effect in reducing laminitis which was caused by one single injection of the peptides on laminitis was short-lived. Therefore, the duration of the effect of the peptides in reducing laminitis was further assessed by attending veterinarians.

Data set [3] deals with IL-1 stimulation of IL-8 in human skin fibroblasts. Description: Inhibition of IL-1 induced IL-8 in human fibroblasts. It is filed as cell-based. The settings on record: inhibition of IL-1 stimulation of IL-8 in human skin fibroblasts; average of three measurements and standard error; read-out: Binding (IC50 nM). How it is done: Inhibition of IL-1 induced IL-8 in human fibroblasts was determined using normal human dermal fibroblast cells cultured in DMEM with 10% fetal calf serum in 48-well plates.
Twenty-four hours before initiation of the experiment, the medium was changed to DMEM with 0.2% fetal calf serum. Each peptide was added to confluent cells, which were then pulsed for 30 min with rIL-I,B (which was obtained from R & D Systems) at 50 pg/ml. The cells were washed four times with PBS, and fresh DMEM/0.2% fetal calf serum was added to each well. After 5 hr of incubation, the culture media were collected and analyzed by ELISA for IL-8 (which was obtained from R & D Systems). Maximal activation, with IL-1 only, was 2530±13 pg/ml of IL-8. Nonspecific activation, determined in the presence of 1000-fold excess IL-1Ra, was 30±9 pg/ml of IL-8 (n=3).

The target of data set [4] is T1, IL-1 receptor (Homo sapiens, UniProt P14778).
T1 construct: confluent human monocytes, which express the IL-1 receptor; endogenous in cells; host or cells: human monocytes
T1 sequence (P14778 18-569): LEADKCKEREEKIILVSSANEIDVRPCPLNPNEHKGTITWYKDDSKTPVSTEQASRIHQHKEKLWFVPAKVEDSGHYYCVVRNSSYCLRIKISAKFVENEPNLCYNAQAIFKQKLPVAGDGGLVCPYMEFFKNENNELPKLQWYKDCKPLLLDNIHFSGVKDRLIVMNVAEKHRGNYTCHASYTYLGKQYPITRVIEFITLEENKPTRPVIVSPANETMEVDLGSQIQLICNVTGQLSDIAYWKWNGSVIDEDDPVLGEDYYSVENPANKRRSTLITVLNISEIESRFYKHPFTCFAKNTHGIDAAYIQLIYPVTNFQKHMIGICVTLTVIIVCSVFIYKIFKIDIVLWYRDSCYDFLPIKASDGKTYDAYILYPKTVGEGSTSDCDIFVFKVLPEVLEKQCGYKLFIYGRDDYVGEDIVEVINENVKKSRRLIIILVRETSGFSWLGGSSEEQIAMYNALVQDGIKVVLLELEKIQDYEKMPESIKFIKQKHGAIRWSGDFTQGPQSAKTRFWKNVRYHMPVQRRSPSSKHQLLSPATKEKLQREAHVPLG
Description: Radioligand competition binding assay (125I-labeled IL-1α) on human monocytes. The settings on record: IL-1 binding antagonism on human monocytes; average of three measurements and standard error. How it is done:
(§1) Radioligand competition binding assays were performed in 96-well plates containing confluent human monocytes, which express the IL-1 receptor. Wells were washed three times with binding buffer, and binding buffer was placed in each well. Peptides were resuspended in dimethyl sulfoxide at 20 mM and diluted in binding buffer to the desired starting concentration. Using a Beckman robotic system, five 3-fold dilutions were prepared, and peptide solution was transferred to duplicate receptor-containing wells. To each well, radioactive ^125Iodine-labeled IL-Ia (Amersham) was added to a final concentration of 40 pM, and the plates were placed on a shaking platform at 4° C. for 2 hr. Plates were washed with PBS using a plate washer, and bound ^125I-labeled IL-la was eluted for 10 min with 0.1 M NaOH and counted in a gamma counter. IC50 values were determined by fitting the data to a two-parameter logistic equation. In all cases, nonspecific binding was determined by the addition of 3 μM of recombinant IL-Ia.

The nature of data set [5]: Human plasma stability trials. Format: in vitro ADME. Conditions: 37° C., 12 hours, read-out: ½ Life human plasma. As for the experimental part:
1 mg of each peptide was added to the plasma and the solution was gently agitated for 2 minutes at room temperature before standing at 37° C. for a period of 12 hours.

Data set [6] in a line: Solubility of peptide under different solvent conditions. Format: physicochemical. Conditions: 30 min room temperature. As for the experimental part:
100 mg of each peptide was added to 100 ml total of water plus the solvents, and the solution was gently agitated for 30 min at room temperature.

The target in data set [7] is T2, IL-1 receptor (IL-1R) expressed on human monocytes (human, UniProt P14778 18-569).
T2 construct: whole, on cells; The same entry stands for the receptor on human dermal fibroblasts and on colonic epithelial cell lines in the functional rows; also called interleukin-1 receptor
T2 sequence (looked up): T1 sequence (P14778 18-569)
Briefly: radioligand competition, 40 pM 125I-IL-1α on confluent human monocytes. As for the experimental part:
as §1, with “¹²⁵Iodine-labeled” for “^125Iodine-labeled”, “¹²⁵I-labeled” for “^125I-labeled”, “IC₅₀” for “IC50”
Background: In a radioligand displacement assay an active substance lowers the binding of a labelled ligand.

Data set [8] has as its target T2, IL-1 receptor (IL-1R) expressed on …. Description: cell-based or functional assay.
Setting [9] is: benzyl alcohol (0.1-1%) in water, benzyl alcohol (0.1-1%), 100 mg peptide in 100 ml, read-out: Solubility: Benzyl Alcohol.
Setting [10] is: hydrochloric acid (0.1-1%) in water, hydrochloric acid (0.1-1%), 100 mg peptide in 100 ml water plus solvent, read-out: Solubility: Acid.
[11] abbreviates: methanol (1-10%) in water, methanol (1-10%), 100 mg peptide in 100 ml, read-out: Solubility: Methanol.
Where [12] appears, read: sodium bicarbonate (0.1-1%) in water, sodium bicarbonate (0.1-1%), 100 mg peptide in 100 ml, read-out: Solubility: Base.

Seven molecules from US20170022258A1, “PEPTIDES FOR USE IN THE TREATMENT OF IL-1 RELATED DISEASES AND CONDITIONS” (C4M PHARMACEUTICALS PTY LTD., priority 2011, published 2017) can be followed below.

Like-named read-outs stand apart in the source and are kept apart here. Non-standard residues stand in square brackets, D forms with d. Residues, ends and D or L forms follow the SMILES beside them. No end group written: not given here.

The IC50 is the concentration at which inhibition is half-maximal. In general, solubility refers to the dissolved amount per volume that the medium holds. For the molecule `CC(=O)N[C@@H](CCC(=O)O)C(=O)N[C@H](C(=O)N1CCC[C@H]1C(=O)N[C@@H](Cc1ccccc1)C(=O)N[C@H](C(=O)N[C@@H](Cc1c[nH]c2ccccc12)C(=O)N[C@@H](CCC(=O)O)C(=O)N[C@@H](CCC(=O)O)C(=O)N[C@@H](CO)C(=O)N[C@@H](CC(N)=O)C(=O)N[C@@H](C)C(=O)N[C@@H](Cc1ccc(O)cc1)C(=O)N[C@@H](Cc1ccc(O)cc1)C(=O)N[C@@H](Cc1c[nH]c2ccccc12)C(=O)N[C@@H](CCC(N)=O)C(=O)N1CCC[C@H]1C(=O)N[C@@H](Cc1ccc(O)cc1)C(=O)N[C@@H](C)C(=O)N[C@@H](CC(C)C)C(=O)N1CCC[C@H]1C(=O)N[C@@H](CC(C)C)C(=O)O)[C@@H](C)O)[C@@H](C)O` [SEQ ID NO. 13, reference compound] (Ac-ETPFTWEESNAYYWQPYALPL-OH; C-terminus assumed), in data set [1], the “Stability of peptide once dissolved in solution (at 1 month), 4° C. (month)” value (from here on “Stability … 4° C. (month)”) is 21%. Further, in data set [1], the “Stability of peptide once dissolved in solution (at 1 month), Room Temp (month)” value (from here on “Stability … Room Temp (month)”) stood at 1%. The “Change in Obel Score” value in data set [2] is on record as −0.5. For the same molecule, in data set [2], the “Duration (days) of effect on laminitis” value is 1 days. Besides, the IC50 in data set [3] and in data set [4] was 11 nM in each case. Moreover, the half-life in data set [5] came out at 46 min. Besides, the solubility at 30 min was under 1000 µg/mL in data set [6] (setting [9]), under 1000 µg/mL in data set [6] (setting [10]), over 1000 µg/mL in data set [6] (setting [11]) and under 1000 µg/mL in data set [6] (setting [12]).
`CC(=O)N[C@H](CC(C)C)C(=O)N1CCC[C@@H]1C(=O)N[C@H](CC(C)C)C(=O)N[C@H](C)C(=O)N[C@H](Cc1ccc(O)cc1)C(=O)N1CCC[C@@H]1C(=O)N[C@H](CCC(N)=O)C(=O)N[C@H](Cc1c[nH]c2ccccc12)C(=O)N[C@H](Cc1ccc(O)cc1)C(=O)N[C@H](Cc1ccc(O)cc1)C(=O)N[C@H](C)C(=O)N[C@H](CC(N)=O)C(=O)N[C@H](CO)C(=O)N[C@H](CCC(=O)O)C(=O)N[C@H](CCC(=O)O)C(=O)N[C@H](Cc1c[nH]c2ccccc12)C(=O)N[C@@H](C(=O)N[C@H](Cc1ccccc1)C(=O)N1CCC[C@@H]1C(=O)N[C@@H](C(=O)N[C@H](CCC(=O)O)C(=O)O)[C@H](C)O)[C@H](C)O` [SEQ ID NO. 14] (Ac-[dL][dP][dL][dA][dY][dP][dQ][dW][dY][dY][dA][dN][dS][dE][dE][dW][dT][dF][dP][dT][dE]-OH; C-terminus assumed): in data set [1], the “Stability … 4° C. (month)” value is 78%. Besides, the “Stability … Room Temp (month)” value in data set [1] is on record as 18%. The “Change in Obel Score” value in data set [2] was −1.1. Moreover, in data set [2], the “Duration (days) of effect on laminitis” value turned out to be 2 days. Besides, the IC50 in data set [3] is 11 nM; in data set [4], 9.2 nM. Besides, the half-life in data set [5] amounted to 333 min. For the same molecule, the solubility at 30 min was under 1000 µg/mL in data set [6] (setting [9]), under 1000 µg/mL in data set [6] (setting [10]), over 1000 µg/mL in data set [6] (setting [11]) and under 1000 µg/mL in data set [6] (setting [12]).
In the case of `CC(=O)N[C@@H](Cc1ccccc1)C(=O)N[C@@H](CCC(=O)O)C(=O)N[C@@H](Cc1c[nH]c2ccccc12)C(=O)N[C@H](C(=O)N1CCC[C@H]1C(=O)NCC(=O)N[C@@H](Cc1ccc(O)cc1)C(=O)N[C@@H](Cc1c[nH]c2ccccc12)C(=O)N[C@@H](CCC(N)=O)C(=O)N1CCC[C@H]1C(=O)N[C@@H](Cc1ccc(O)cc1)C(=O)N[C@@H](C)C(=O)N[C@@H](CC(C)C)C(=O)N1CCC[C@H]1C(=O)N[C@@H](CC(C)C)C(=O)O)[C@@H](C)O` [SEQ ID NO. 19, Ac FEWTPGYWQPYALPL, reference compound] (Ac-FEWTPGYWQPYALPL-OH; C-terminus assumed), in data set [1], the “Stability … 4° C. (month)” value is 95% and the “Stability … Room Temp (month)” value is on record as 48%. In addition, in data set [2], the “Change in Obel Score” value was −2.1 and the “Duration (days) of effect on laminitis” value came to 2 days. In data set [3], the IC50 worked out at 10 nM. In addition, the half-life in data set [5] was determined as 49 min. In addition, the solubility at 30 min in data set [6] (setting [9]) is over 1000 µg/mL. The solubility at 30 min in data set [6] (setting [10]) was under 1000 µg/mL. In addition, in data set [6] (setting [12]), the solubility at 30 min is under 1000 µg/mL.
Ac-FEWTPGYWQPYALPL (also called peptide 19) [peptide of SEQ ID NO: 19 (Ac FEWTPGYWQPYALPL)] gave a half-maximal inhibitory concentration (IC50) in data set [7] of 7.1 nM. For the same molecule, in data set [8], the “IC50, in vitro inhibition of IL-1 stimulation of IL-8 in human skin fibroblasts (rIL-1β 50 pg/ml, IL-8 ELISA)” value was found to be 10 nM.
In turn, Ac-TANVSSFEWTPGYWQPYALPL (also called peptide 17) [peptide of SEQ ID NO: 17 (Ac-TANVSSFEWTPGYWQPYALPL)] registered a half-maximal inhibitory concentration (IC50) in data set [7] of 7.6 nM. The “IC50, in vitro inhibition of IL-1 stimulation of IL-8 in human skin fibroblasts (rIL-1β 50 pg/ml, IL-8 ELISA)” value in data set [8] stood at 76 nM.
For Ac-DGYDRWRQSGERYWQPYALPL (also called peptide 20) [peptide of SEQ ID NO: 20 (Ac-DGYDRWRQSGERYWQPYALPL)] the same measures were 8.1 nM and 19 nM.
For Ac-FTWEESNAYYWQPYALPL (also called peptide 15) [peptide of SEQ ID NO: 15 (Ac-FTWEESNAYYWQPYALPL)] the same measures were 20 nM and 16 nM.
